Patent publication US20230140216A1, “COMBINATION THERAPY FOR TREATING MPS1” (GAIN THERAPEUTICS SA, priority 2020, published 2023)

Tests used:
[1] = tested on: Patient-derived fibroblasts; assay: Enzyme enhancement activity in combination with rhIDUA in patient-derived fibroblasts; assay type: cell-based, human
Protocol: Patient-derived fibroblasts were seeded at 4×10^4 cells per well in 12-well cell culture plates in Dulbecco’s Modified Eagle’s Media (DMEM) supplemented with 10% of fetal bovine serum (FBS), 1% penicillin/streptomycin (P/S) (Thermo Fisher Scientific, Waltham, MA, USA) and incubated at 37° C., 5% CO2 overnight for cell attachment. Subsequently, cells were incubated in the absence or presence of the compounds and/or 1.25 nM recombinant human α-L-iduronidase protein (obtained in the Institute of Biotechnology and Biomedicine in the UAB) for 4 days. After incubation, cells were washed with phosphate-buffered saline (“PBS”) and detached using Trypsin-EDTA solution (Sigma Aldrich, St. Louis, MO, USA) to prepare cell pellets. The pellets were stored at -80° C. until activity assays were performed. α-L-iduronidase activity in cell lysates was measured by using 4-methylumbelliferyl alpha-L-iduronide substrate (Glycosynth, Warrington, UK). Briefly, lysates were resuspended in 25 µL of 0.9% NaCl containing 0.01% triton X-100 lysis buffer to promote membrane disruption. The cell suspension was sonicated and centrifuged to remove insoluble materials. Then, lysates were mixed with 25 µL of 200 µM 4-MU- alpha-L-iduronide substrate in 0.4 M sodium formate pH 3.5 0.2% triton X-100 buffer for 60 min at 37° C. The reaction was terminated by adding 200 µL of 0.5 M Glycine/0.3M NaOH buffer pH=10. The liberated 4-MU was measured on a Glomax® Discover Microplate Reader from Promega with excitation at 340 nm and emission at 460 nm. Protein quantification was determined using Pierce BCA Protein Assay Kit (Thermo Fisher Scientific, Waltham, MA, USA). Measurements were interpolated in a 4-MU standard curve and normalized by protein quantity.
Compound A increases uptake of rhIDUA protein and its enzymatic activity under a wide range of conditions (rhIDUA concentration and cell-types). Benefits are particularly evident at longer incubation times (4 days).

[2] = In vivo safety / IV maximum tolerated dose
[3] = molecular target: T1, Recombinant human α-L-iduronidase protein IDUA (Homo sapiens, UniProt P35475); assay: IDUA inhibition assay; assay type: biochemical; conditions: 4-MU alpha-L-iduronide substrate, pH 3.5, even at high concentrations
T1 construct: Ala26-Pro653 with a C-terminal 10_His tag; 10xHis (C); host or cells: HEK293f
T1 sequence (P35475 26-653): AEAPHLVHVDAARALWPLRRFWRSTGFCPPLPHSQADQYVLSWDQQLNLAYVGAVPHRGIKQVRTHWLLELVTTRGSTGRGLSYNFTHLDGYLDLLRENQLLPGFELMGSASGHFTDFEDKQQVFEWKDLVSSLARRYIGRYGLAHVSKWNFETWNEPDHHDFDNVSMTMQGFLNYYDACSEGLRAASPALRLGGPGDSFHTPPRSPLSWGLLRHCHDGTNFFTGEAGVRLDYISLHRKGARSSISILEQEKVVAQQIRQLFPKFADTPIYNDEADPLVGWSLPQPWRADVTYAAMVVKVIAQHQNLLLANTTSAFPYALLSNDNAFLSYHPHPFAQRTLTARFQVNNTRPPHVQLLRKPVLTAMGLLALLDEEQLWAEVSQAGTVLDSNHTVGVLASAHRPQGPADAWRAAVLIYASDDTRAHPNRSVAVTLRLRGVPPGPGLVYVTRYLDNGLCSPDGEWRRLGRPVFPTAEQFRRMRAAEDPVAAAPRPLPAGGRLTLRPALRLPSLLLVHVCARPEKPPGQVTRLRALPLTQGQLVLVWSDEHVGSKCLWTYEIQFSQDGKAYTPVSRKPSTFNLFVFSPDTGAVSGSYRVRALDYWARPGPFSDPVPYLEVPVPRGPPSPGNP
Protocol: The ability of Compound of the Disclosure to inhibit IDUA was assessed by the assay described below.
Recombinant human α-L-iduronidase protein IDUA PR_06_WT_X (obtained in the Institute of Biotechnology and Biomedicine in the UAB, Bellaterra, Spain) was prepared at the desired concentration in PBS:
Recombinant Human IDUA. HEK293f. Ala26-Pro653 with a C-terminal 10_His tag. Protein buffer: 40 mM sodium acetate, 400 mM NaCl and 20% glycerol, pH=5. Produced by PPP IBB UAB.
The activity assay (3 replicates of each sample) included the following procedures:
In dark 96-well plates compatible with fluorometer: • 1) 25 µL of Recombinant protein or PBS (in blank samples); • 2) 1 µL CO (50X concentrate, made in an intermediate plate) or DMSO for the untreated samples; • 3) 25 µL of 200 µM substrate solution (from a stock solution of 20 mM of substrate in DMSO), 4-Methylumbelliferyl alpha-L-iduronide (Glycosynth, 44076) in 0,4 M sodium formate, pH 3,5, and 0,2% triton; • 4) Mix (shaker); • 5) 37° C. 60 min; • 6) Stop the reaction by adding 200 µL of 0,5 M Glycine / 0,3 M NaOH, pH=10; and • 7) Read Fluorescence at Ex/Em: 340/460 nm.

SMILES: CCN(CC(=O)Nc1c(Cl)cccc1Cl)Cc1nc2ccsc2c(=O)[nH]1 [Compound A]
- activity across a panel of patient-derived fibroblasts ([1]; 96h): active across a panel of patient-derived fibroblasts
- amount of α-L-iduronidase in fibroblasts ([1]; 96h): increases the amount of α-L-iduronidase in fibroblasts
- EC50 ([1]; Homo sapiens, Fibroblast, fibroblasts, 96h, co-administration with rhIDUA, read-out: cell-based EC50 (IDUA activity/uptake with rhIDUA)): 16 µM
- IDUA cell uptake on co-administration ([1]; Hurler-Scheie fibroblasts, 50 µM compound, 96h, vs. single agent): marked increase of IDUA cell uptake
- effect versus incubation time ([1]; fibroblasts): increases at longer incubation times
- safety at tested doses ([2]; i.v., all doses tested): safe at all doses tested
- MTD ([2]; mouse, in vivo, iv): 45 mg/kg
- inhibition of IDUA enzymatic activity [3]: does not inhibit human IDUA
